From article PMC8401042, “Non-Toxic Dimeric Peptides Derived from the Bothropstoxin-I Are Potent SARS-CoV-2 and Papain-like Protease Inhibitors” (Molecules, 2021)
Like-named read-outs stand apart in the source and are kept apart here. Bridge positions count the residues as written; N and C are the ends. Peptide text beside a SMILES is read from it. I, II: the chains in the order shown.

Assays:
[1] = target: T1, SARS-CoV-2 PLpro (Severe acute respiratory syndrome coronavirus 2, UniProt P0DTD1); test: SARS-CoV-2 PLpro FRET enzyme inhibition assay; assay type: biochemical; details: for inhibition at 10 µM: 10 µM peptide, 27 µM substrate, 37 °C
[2] = target: T1, SARS-CoV-2 PLpro; test: Microscale thermophoresis (MST) binding assay; details: 100 nM labelled PLpro, peptides 0.015 to 500 µM, 50 mM HEPES pH 7.5, 100 mM NaCl, 2 mM DTT, DMSO 5%; triplicate, Hill fit
[3] = tested on: SARS-CoV-2; details: for SARS-CoV-2 % of inhibition at 100 µM: 24 h
[4] = calculated from IC50 values, Figure 3A, read-out: pIC50 (−logIC50), PLpro (converted)
[5] = 70 nM enzyme, 27 µM FRET substrate, 50 mM HEPES pH 7.5, 0.01% Triton X-100, 5 mM DTT, 30 min pre-incubation at 37 °C, Hill fit, two independent experiments, read-out: IC50 against PLpro

Row | Structure (SMILES) | inhibition at 10 µM ([1]; 70 nM enzyme) | IC50 [1, 4] | Kd [2] | IC50 [1, 5] | SARS-CoV-2 % of inhibition at 100 µM [3] | SI = selectivity index (CC50/EC50) ([3]; CC50/EC50 in Vero cells)
1 | CC(C)C[C@H](NC(=O)[C@H](Cc1c[nH]cn1)NC(=O)[C@H](Cc1ccc(O)cc1)NC(=O)[C@H](CCCNC(=N)N)NC(=O)[C@H](Cc1ccc(O)cc1)NC(=O)[C@H](CCCCN)NC(=O)[C@@H](N)CCCCN)C(=O)N[C@@H](CCCCN)C(=O)N1CCC[C@H]1C(=O)N[C@@H](Cc1ccccc1)C(=O)NCCCC[C@H](NC(=O)[C@H](Cc1ccccc1)NC(=O)[C@@H]1CCCN1C(=O)[C@H](CCCCN)NC(=O)[C@H](CC(C)C)NC(=O)[C@H](Cc1c[nH]cn1)NC(=O)[C@H](Cc1ccc(O)cc1)NC(=O)[C@H](CCCNC(=N)N)NC(=O)[C@H](Cc1ccc(O)cc1)NC(=O)[C@H](CCCCN)NC(=O)[C@@H](N)CCCCN)C(N)=O [(pBthTX-I)2K, des-Cys^11,Lys^12,Lys^13-(pBthTX-I)2K] (I: H-KKYRYHLKPFK-NH2 / II: H-KKYRYHLKPF; amide I:11-II:C) | 98% | 2400 nM | 0.9 ± 0.1 µM |  |  | 
2 | CC(C)C[C@H](NC(=O)[C@H](Cc1c[nH]cn1)NC(=O)[C@H](Cc1ccc(O)cc1)NC(=O)[C@H](CCCNC(=N)N)NC(=O)[C@H](Cc1ccc(O)cc1)NC(=O)[C@H](CCCCN)NC(=O)[C@H](C)N)C(=O)N[C@@H](CCCCN)C(=O)N1CCC[C@H]1C(=O)N[C@@H](Cc1ccccc1)C(=O)NCCCC[C@H](NC(=O)[C@H](Cc1ccccc1)NC(=O)[C@@H]1CCCN1C(=O)[C@H](CCCCN)NC(=O)[C@H](CC(C)C)NC(=O)[C@H](Cc1c[nH]cn1)NC(=O)[C@H](Cc1ccc(O)cc1)NC(=O)[C@H](CCCNC(=N)N)NC(=O)[C@H](Cc1ccc(O)cc1)NC(=O)[C@H](CCCCN)NC(=O)[C@H](C)N)C(N)=O [A1] (I: H-AKYRYHLKPFK-NH2 / II: H-AKYRYHLKPF; amide I:11-II:C) | 97% |  | 6 ± 3 µM | 3500 ± 100 nM | 4% | 
3 | CC(C)C[C@H](NC(=O)[C@H](Cc1c[nH]cn1)NC(=O)[C@H](Cc1ccc(O)cc1)NC(=O)[C@H](CCCNC(=N)N)NC(=O)[C@H](Cc1ccc(O)cc1)NC(=O)[C@H](C)NC(=O)[C@@H](N)CCCCN)C(=O)N[C@@H](CCCCN)C(=O)N1CCC[C@H]1C(=O)N[C@@H](Cc1ccccc1)C(=O)NCCCC[C@H](NC(=O)[C@H](Cc1ccccc1)NC(=O)[C@@H]1CCCN1C(=O)[C@H](CCCCN)NC(=O)[C@H](CC(C)C)NC(=O)[C@H](Cc1c[nH]cn1)NC(=O)[C@H](Cc1ccc(O)cc1)NC(=O)[C@H](CCCNC(=N)N)NC(=O)[C@H](Cc1ccc(O)cc1)NC(=O)[C@H](C)NC(=O)[C@@H](N)CCCCN)C(N)=O [A2] (I: H-KAYRYHLKPFK-NH2 / II: H-KAYRYHLKPF; amide I:11-II:C) | 99% |  | 7 ± 3 µM | 2400 ± 30 nM | 10% | 
4 | CC(C)C[C@H](NC(=O)[C@H](Cc1c[nH]cn1)NC(=O)[C@H](Cc1ccc(O)cc1)NC(=O)[C@H](CCCNC(=N)N)NC(=O)[C@H](C)NC(=O)[C@H](CCCCN)NC(=O)[C@@H](N)CCCCN)C(=O)N[C@@H](CCCCN)C(=O)N1CCC[C@H]1C(=O)N[C@@H](Cc1ccccc1)C(=O)NCCCC[C@H](NC(=O)[C@H](Cc1ccccc1)NC(=O)[C@@H]1CCCN1C(=O)[C@H](CCCCN)NC(=O)[C@H](CC(C)C)NC(=O)[C@H](Cc1c[nH]cn1)NC(=O)[C@H](Cc1ccc(O)cc1)NC(=O)[C@H](CCCNC(=N)N)NC(=O)[C@H](C)NC(=O)[C@H](CCCCN)NC(=O)[C@@H](N)CCCCN)C(N)=O [A3] (I: H-KKARYHLKPFK-NH2 / II: H-KKARYHLKPF; amide I:11-II:C) | 95% |  | 6 ± 4 µM | 1000 ± 30 nM |  | 
5 | CC(C)C[C@H](NC(=O)[C@H](Cc1c[nH]cn1)NC(=O)[C@H](Cc1ccc(O)cc1)NC(=O)[C@H](C)NC(=O)[C@H](Cc1ccc(O)cc1)NC(=O)[C@H](CCCCN)NC(=O)[C@@H](N)CCCCN)C(=O)N[C@@H](CCCCN)C(=O)N1CCC[C@H]1C(=O)N[C@@H](Cc1ccccc1)C(=O)NCCCC[C@H](NC(=O)[C@H](Cc1ccccc1)NC(=O)[C@@H]1CCCN1C(=O)[C@H](CCCCN)NC(=O)[C@H](CC(C)C)NC(=O)[C@H](Cc1c[nH]cn1)NC(=O)[C@H](Cc1ccc(O)cc1)NC(=O)[C@H](C)NC(=O)[C@H](Cc1ccc(O)cc1)NC(=O)[C@H](CCCCN)NC(=O)[C@@H](N)CCCCN)C(N)=O [A4] (I: H-KKYAYHLKPFK-NH2 / II: H-KKYAYHLKPF; amide I:11-II:C) | 97% |  | 3 ± 1 µM | 2000 ± 30 nM | 10% | 
6 | CC(C)C[C@H](NC(=O)[C@H](Cc1c[nH]cn1)NC(=O)[C@H](C)NC(=O)[C@H](CCCNC(=N)N)NC(=O)[C@H](Cc1ccc(O)cc1)NC(=O)[C@H](CCCCN)NC(=O)[C@@H](N)CCCCN)C(=O)N[C@@H](CCCCN)C(=O)N1CCC[C@H]1C(=O)N[C@@H](Cc1ccccc1)C(=O)NCCCC[C@H](NC(=O)[C@H](Cc1ccccc1)NC(=O)[C@@H]1CCCN1C(=O)[C@H](CCCCN)NC(=O)[C@H](CC(C)C)NC(=O)[C@H](Cc1c[nH]cn1)NC(=O)[C@H](C)NC(=O)[C@H](CCCNC(=N)N)NC(=O)[C@H](Cc1ccc(O)cc1)NC(=O)[C@H](CCCCN)NC(=O)[C@@H](N)CCCCN)C(N)=O [A5] (I: H-KKYRAHLKPFK-NH2 / II: H-KKYRAHLKPF; amide I:11-II:C) | 95% |  | 3 ± 2 µM | 1900 ± 10 nM |  | 
7 | CC(C)C[C@H](NC(=O)[C@H](C)NC(=O)[C@H](Cc1ccc(O)cc1)NC(=O)[C@H](CCCNC(=N)N)NC(=O)[C@H](Cc1ccc(O)cc1)NC(=O)[C@H](CCCCN)NC(=O)[C@@H](N)CCCCN)C(=O)N[C@@H](CCCCN)C(=O)N1CCC[C@H]1C(=O)N[C@@H](Cc1ccccc1)C(=O)NCCCC[C@H](NC(=O)[C@H](Cc1ccccc1)NC(=O)[C@@H]1CCCN1C(=O)[C@H](CCCCN)NC(=O)[C@H](CC(C)C)NC(=O)[C@H](C)NC(=O)[C@H](Cc1ccc(O)cc1)NC(=O)[C@H](CCCNC(=N)N)NC(=O)[C@H](Cc1ccc(O)cc1)NC(=O)[C@H](CCCCN)NC(=O)[C@@H](N)CCCCN)C(N)=O [A6] (I: H-KKYRYALKPFK-NH2 / II: H-KKYRYALKPF; amide I:11-II:C) | 97% |  | 5 ± 3 µM | 1800 ± 70 nM | 22% | 
8 | CC(C)C[C@H](NC(=O)[C@H](Cc1c[nH]cn1)NC(=O)[C@H](Cc1ccc(O)cc1)NC(=O)[C@H](CCCNC(=N)N)NC(=O)[C@H](Cc1ccc(O)cc1)NC(=O)[C@H](CCCCN)NC(=O)[C@@H](N)CCCCN)C(=O)N[C@@H](C)C(=O)N1CCC[C@H]1C(=O)N[C@@H](Cc1ccccc1)C(=O)NCCCC[C@H](NC(=O)[C@H](Cc1ccccc1)NC(=O)[C@@H]1CCCN1C(=O)[C@H](C)NC(=O)[C@H](CC(C)C)NC(=O)[C@H](Cc1c[nH]cn1)NC(=O)[C@H](Cc1ccc(O)cc1)NC(=O)[C@H](CCCNC(=N)N)NC(=O)[C@H](Cc1ccc(O)cc1)NC(=O)[C@H](CCCCN)NC(=O)[C@@H](N)CCCCN)C(N)=O [A8] (I: H-KKYRYHLAPFK-NH2 / II: H-KKYRYHLAPF; amide I:11-II:C) | 99% | 2400 nM |  |  |  | 
9 | CC(C)C[C@H](NC(=O)[C@H](Cc1c[nH]cn1)NC(=O)[C@H](Cc1ccc(O)cc1)NC(=O)[C@H](CCCNC(=N)N)NC(=O)[C@H](Cc1ccc(O)cc1)NC(=O)[C@H](CCCCN)NC(=O)[C@@H](N)CCCCN)C(=O)N[C@@H](CCCCN)C(=O)N1CCC[C@H]1C(=O)N[C@@H](C)C(=O)NCCCC[C@H](NC(=O)[C@H](C)NC(=O)[C@@H]1CCCN1C(=O)[C@H](CCCCN)NC(=O)[C@H](CC(C)C)NC(=O)[C@H](Cc1c[nH]cn1)NC(=O)[C@H](Cc1ccc(O)cc1)NC(=O)[C@H](CCCNC(=N)N)NC(=O)[C@H](Cc1ccc(O)cc1)NC(=O)[C@H](CCCCN)NC(=O)[C@@H](N)CCCCN)C(N)=O [A10] (I: H-KKYRYHLKPAK-NH2 / II: H-KKYRYHLKPA; amide I:11-II:C) | 98% |  |  | 2400 ± 200 nM | 7% | 
10 | Cc1c(-c2ccc(-c3ccccc3F)cc2)nc2ccc(F)cc2c1C(=O)O [BREQ, brequinar, reference compound] |  |  |  |  |  | >25
11 | CC[C@H](C)[C@H](N)C(=O)N[C@@H](Cc1ccccc1)C(=O)NCC(=O)N[C@@H](C)C(=O)N[C@H](C(=O)N[C@@H](CC(C)C)C(=O)N1CCC[C@H]1C(=O)N[C@@H](CC(C)C)C(=O)N[C@@H](C)C(=O)N[C@@H](CC(C)C)C(=O)NCC(=O)N[C@@H](C)C(=O)N[C@@H](CC(C)C)C(=O)N[C@@H](CCCCN)C(=O)N[C@@H](CC(N)=O)C(=O)N[C@@H](CC(C)C)C(=O)N[C@H](C(=O)N[C@@H](CCCCN)C(N)=O)[C@@H](C)CC)[C@@H](C)CC [Hy-a1, Hylin a1, reference compound] (H-IFGAILPLALGALKNLIK-NH2; N-terminus and C-terminus assumed) | 13% |  |  |  | 59% | 
